In paper PMC9578339, “Deracemisation and stereoinversion by a nanoconfined bidirectional enzyme cascade: dual control by electrochemistry and selective metal ion activation” (Chemical Communications (Cambridge, England), 2022):

Target: T1, LK (R-selective alcohol dehydrogenase) (Lentilactobacillus kefiri, UniProt Q6WVP7)
T1 construct: gene adh; homo-tetramer; Mg2+ dependent; co-entrapped with FNR in porous ITO electrode
T1 sequence (Q6WVP7 1-252): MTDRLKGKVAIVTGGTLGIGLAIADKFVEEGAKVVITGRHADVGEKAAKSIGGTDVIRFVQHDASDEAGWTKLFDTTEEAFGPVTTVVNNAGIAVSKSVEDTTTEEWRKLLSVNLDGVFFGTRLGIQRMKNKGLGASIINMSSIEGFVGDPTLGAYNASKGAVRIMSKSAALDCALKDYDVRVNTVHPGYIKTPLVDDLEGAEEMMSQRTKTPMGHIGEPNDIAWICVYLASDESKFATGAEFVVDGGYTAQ
Assay: chronoamperometry on FNR/ITO electrode, chiral GC
Assay type: biochemical
Conditions: pH 9.0, 50 mM TAPS, 25 °C, 5 mM Mg2+, 20 uM NADP+; enzyme entrapped with FNR and W110V in ITO electrode

C[C@@H](O)CCc1ccccc1 [(R)-4-phenyl-2-butanol]
chronoamperometry on FNR/ITO electrode, chiral GC: conversion of (R)-4-phenyl-2-butanol to 4-phenyl-2-butanone by LK
